Data reported in patent US7462644B2, “Therapeutic agents” (AstraZeneca AB, priority 2002, dated 2008).

These compounds were tested against T1, human PPAR alpha (Homo sapiens, UniProt Q07869) (assay: PPARα EC50 assay (assays described in WO03/051821)).
T1 sequence (Q07869 1-468): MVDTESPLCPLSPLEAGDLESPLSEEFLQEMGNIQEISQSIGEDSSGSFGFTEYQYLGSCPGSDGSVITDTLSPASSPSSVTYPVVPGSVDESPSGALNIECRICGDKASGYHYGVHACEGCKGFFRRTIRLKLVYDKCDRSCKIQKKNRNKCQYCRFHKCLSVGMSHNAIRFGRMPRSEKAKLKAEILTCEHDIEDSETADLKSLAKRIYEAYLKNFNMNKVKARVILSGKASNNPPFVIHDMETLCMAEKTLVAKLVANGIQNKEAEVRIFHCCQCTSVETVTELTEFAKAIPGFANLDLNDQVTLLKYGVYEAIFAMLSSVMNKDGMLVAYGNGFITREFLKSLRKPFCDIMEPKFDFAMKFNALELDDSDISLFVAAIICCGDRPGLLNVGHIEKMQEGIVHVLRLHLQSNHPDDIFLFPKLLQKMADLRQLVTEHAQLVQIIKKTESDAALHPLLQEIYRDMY
Assay type: cell-based
Procedure: The compounds of the invention were tested in the assays described in WO03/051821.
With `CCO[C@@H](Cc1ccc(OCC(=O)N(CC)Cc2ccc(C(F)(F)F)cc2)cc1)C(=O)O` [Example 4, (2S)-2-Ethoxy-3-[4-(2-{ethyl[4-(trifluoromethyl)benzyl]amino}-2-oxoethoxy)phenyl]propanoic Acid] the EC50 was 5 nM. `CCCCN(Cc1ccc(C(F)(F)F)cc1)C(=O)COc1ccc(C[C@H](OCC)C(=O)O)cc1` [Example 5] gave an EC50 of 3 nM. `CCCCN(Cc1ccc(C(F)(F)F)cc1F)C(=O)COc1ccc(C[C@H](OCC)C(=O)O)cc1` [Example 1, (2S)-3-[4-(2-{Butyl[2-fluoro-4-(trifluoromethyl)benzyl]amino}-2-oxoethoxy)phenyl]-2-ethoxy propanoic Acid] gave an EC50 of 1 nM. `CCO[C@@H](Cc1ccc(OCC(=O)N(CC)Cc2ccc(OC(F)(F)F)cc2)cc1)C(=O)O` [Example 3] was tested, and the EC50 was 3 nM. In the case of `CCO[C@@H](Cc1ccc(OCC(=O)N(CC)Cc2ccc(Cl)cc2)cc1)C(=O)O` [Example 2, (2S)-3-(4-{2-[(4-Chlorobenzyl)(ethyl)amino]-2-oxoethoxy}phenyl)-2-ethoxypropanoic Acid], the EC50 is reported as 3 nM.
